The structures appear in SMILES notation.

For this assay, the target named is T1, Human CaV2.2 channels (Homo sapiens, UniProt Q00975).
T1 construct: expressed in transfected cells
T1 sequence (Q00975 whole entry): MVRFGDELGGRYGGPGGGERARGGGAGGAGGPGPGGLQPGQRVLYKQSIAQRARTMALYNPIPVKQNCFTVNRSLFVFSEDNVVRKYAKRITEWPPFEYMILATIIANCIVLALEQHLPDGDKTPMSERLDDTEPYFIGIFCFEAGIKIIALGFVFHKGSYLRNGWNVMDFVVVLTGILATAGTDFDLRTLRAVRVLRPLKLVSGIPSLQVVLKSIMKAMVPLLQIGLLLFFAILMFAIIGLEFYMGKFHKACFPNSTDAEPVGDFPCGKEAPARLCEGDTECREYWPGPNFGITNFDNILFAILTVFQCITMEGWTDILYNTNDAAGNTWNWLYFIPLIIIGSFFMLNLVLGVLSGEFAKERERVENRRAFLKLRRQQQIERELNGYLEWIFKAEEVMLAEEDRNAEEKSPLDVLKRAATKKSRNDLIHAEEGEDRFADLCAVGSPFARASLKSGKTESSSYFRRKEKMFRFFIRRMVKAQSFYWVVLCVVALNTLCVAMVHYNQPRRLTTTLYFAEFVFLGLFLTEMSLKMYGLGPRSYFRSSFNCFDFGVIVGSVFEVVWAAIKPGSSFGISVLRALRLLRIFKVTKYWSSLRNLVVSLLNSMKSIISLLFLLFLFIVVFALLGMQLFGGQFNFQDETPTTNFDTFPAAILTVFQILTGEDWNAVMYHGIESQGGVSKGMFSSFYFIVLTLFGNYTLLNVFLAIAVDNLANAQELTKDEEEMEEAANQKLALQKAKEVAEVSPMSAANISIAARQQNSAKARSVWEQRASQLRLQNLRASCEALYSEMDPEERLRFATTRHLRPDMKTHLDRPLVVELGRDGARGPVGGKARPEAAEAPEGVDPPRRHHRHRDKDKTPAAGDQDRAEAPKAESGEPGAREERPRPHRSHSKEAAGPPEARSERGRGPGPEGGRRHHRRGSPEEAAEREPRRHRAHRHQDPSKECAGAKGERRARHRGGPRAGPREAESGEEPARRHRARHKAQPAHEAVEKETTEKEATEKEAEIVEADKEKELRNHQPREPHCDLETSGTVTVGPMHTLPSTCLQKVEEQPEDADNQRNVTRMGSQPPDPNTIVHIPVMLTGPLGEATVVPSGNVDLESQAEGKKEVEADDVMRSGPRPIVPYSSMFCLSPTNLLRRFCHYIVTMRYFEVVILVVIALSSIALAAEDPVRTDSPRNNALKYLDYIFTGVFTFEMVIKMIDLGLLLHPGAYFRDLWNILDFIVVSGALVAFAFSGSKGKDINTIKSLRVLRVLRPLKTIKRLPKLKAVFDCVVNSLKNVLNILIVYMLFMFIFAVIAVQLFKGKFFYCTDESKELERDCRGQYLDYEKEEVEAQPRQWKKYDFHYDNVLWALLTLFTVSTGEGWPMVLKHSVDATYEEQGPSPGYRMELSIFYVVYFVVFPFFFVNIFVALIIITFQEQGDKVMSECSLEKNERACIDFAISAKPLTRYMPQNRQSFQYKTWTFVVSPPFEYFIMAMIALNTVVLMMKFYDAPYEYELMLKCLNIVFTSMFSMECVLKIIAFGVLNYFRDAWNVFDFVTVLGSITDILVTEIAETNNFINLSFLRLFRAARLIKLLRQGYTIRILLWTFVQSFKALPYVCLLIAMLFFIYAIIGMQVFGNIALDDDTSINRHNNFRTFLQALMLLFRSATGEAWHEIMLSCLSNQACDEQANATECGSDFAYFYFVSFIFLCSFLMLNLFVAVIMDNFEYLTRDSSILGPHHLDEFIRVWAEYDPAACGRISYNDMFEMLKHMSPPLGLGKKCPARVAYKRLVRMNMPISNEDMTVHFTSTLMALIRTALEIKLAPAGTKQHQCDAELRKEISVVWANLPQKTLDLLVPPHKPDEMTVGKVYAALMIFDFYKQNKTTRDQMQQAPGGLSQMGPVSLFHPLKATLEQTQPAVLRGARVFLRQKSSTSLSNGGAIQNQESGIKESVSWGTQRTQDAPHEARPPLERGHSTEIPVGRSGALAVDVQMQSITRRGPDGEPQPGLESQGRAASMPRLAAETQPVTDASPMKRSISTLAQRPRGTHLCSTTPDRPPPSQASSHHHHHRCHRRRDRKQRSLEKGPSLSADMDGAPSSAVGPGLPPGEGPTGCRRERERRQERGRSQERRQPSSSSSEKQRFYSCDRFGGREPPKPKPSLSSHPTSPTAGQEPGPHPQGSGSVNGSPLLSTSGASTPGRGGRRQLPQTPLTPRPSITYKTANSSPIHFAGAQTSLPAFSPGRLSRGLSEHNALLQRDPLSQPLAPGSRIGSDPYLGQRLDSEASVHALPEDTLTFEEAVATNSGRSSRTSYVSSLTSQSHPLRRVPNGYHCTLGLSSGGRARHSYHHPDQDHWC
T1 sequence (P54289 25-1103, further chain): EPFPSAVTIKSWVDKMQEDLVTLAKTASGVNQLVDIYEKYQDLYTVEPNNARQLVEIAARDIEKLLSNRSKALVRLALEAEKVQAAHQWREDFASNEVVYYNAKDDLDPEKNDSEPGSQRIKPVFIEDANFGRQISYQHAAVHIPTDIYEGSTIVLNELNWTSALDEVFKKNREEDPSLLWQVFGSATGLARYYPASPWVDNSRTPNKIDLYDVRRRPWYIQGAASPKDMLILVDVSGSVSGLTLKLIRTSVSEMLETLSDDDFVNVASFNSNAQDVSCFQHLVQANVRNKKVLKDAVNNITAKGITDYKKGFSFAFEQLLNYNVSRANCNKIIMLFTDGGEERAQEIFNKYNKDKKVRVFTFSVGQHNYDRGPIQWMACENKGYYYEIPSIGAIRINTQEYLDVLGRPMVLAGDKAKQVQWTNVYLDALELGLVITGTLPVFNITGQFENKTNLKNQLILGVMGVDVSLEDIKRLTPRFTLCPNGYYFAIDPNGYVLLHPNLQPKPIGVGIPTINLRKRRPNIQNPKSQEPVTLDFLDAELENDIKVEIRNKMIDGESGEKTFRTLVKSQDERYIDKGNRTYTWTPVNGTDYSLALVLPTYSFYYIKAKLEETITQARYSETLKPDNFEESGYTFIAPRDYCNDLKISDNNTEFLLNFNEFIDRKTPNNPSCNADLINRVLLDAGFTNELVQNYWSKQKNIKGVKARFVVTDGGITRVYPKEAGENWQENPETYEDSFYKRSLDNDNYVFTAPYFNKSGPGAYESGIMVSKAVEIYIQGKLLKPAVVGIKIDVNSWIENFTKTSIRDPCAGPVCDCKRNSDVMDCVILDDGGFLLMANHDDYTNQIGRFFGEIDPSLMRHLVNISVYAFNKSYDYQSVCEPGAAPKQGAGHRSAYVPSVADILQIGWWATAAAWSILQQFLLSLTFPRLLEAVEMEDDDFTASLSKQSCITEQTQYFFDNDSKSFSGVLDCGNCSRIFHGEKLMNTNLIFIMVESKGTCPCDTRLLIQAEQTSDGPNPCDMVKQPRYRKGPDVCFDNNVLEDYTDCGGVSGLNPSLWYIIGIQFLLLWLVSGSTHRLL
T1 sequence (P54284 whole entry, further chain): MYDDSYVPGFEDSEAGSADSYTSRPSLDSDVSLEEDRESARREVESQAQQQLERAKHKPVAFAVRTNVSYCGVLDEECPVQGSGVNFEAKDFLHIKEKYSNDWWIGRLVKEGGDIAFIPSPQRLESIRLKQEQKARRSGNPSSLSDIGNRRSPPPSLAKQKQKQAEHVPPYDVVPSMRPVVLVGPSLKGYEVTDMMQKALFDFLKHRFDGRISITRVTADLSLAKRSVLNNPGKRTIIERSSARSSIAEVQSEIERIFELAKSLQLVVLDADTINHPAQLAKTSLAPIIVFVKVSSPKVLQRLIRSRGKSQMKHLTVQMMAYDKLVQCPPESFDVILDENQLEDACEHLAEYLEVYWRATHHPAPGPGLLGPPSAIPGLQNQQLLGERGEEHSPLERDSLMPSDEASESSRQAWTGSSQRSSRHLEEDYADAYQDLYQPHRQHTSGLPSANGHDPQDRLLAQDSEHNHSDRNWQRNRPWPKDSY
Briefly: Fluorescent assay for CaV2.2 channels using potassium depolarization to induce channel opening (FLIPR, Fluo 4). It counts as cell-based. Particulars: read-out: Activity Category: %-Inhib (CaV2.2) @3 μM @30 mM KCl; 3 μM test compound; 30 mM KCl as printed; HEK293 cells stably expressing human CaV2.2. An outline of the steps:
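HEK293 cells stably co-expressing human CaV2.2 with α2δ and β subunits plus Kir2.3, Fluo-4 loaded; compounds preincubated 15 min at 25 °C in 1 mM or 30 mM KCl buffer (inactivated state), pH 7.4. Depolarized by KCl addition; baseline-normalized peak fluorescence (ex 480/em 535 nm) gave inhibition.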
Take `Cc1noc(Cn2c(C(F)(F)F)cc(-c3ccc(F)cc3)c2C(=O)N(C)C(C)C)n1` [Example 065, 3-(4-Fluorophenyl)-N-isopropyl-N-methyl-1-[(3-methyl-[1,2,4]oxadiazol-5-yl)-methyl]-5-(trifluoromethyl)-1H-pyrrole-2-carboxylic acid amide]: the inhibition at 3 µM fell in the range of 75 to 95%.
The result for `Cc1cc(CN(C)C(=O)c2c(-c3ccc(Cl)cc3F)c(C)c(C(F)(F)F)n2Cc2ncccn2)no1` [Example 066, 3-(4-Chloro-2-fluoro-phenyl)-N,4-dimethyl-N-[(5-methyl-isoxazol-3-yl)-methyl]-1-(pyrimidin-2-yl-methyl)-5-(trifluoromethyl)-1H-pyrrole-2-carboxylic acid amide] reads above 95%.
The result for `Cc1cc(Cn2c(C(=O)N(C)C(C)C)c(-c3ccc(Cl)cc3)c(C)c2C(F)(F)F)on1` [Example 067, 3-(4-Chlorophenyl)-N-isopropyl-N,4-dimethyl-1-[(3-methyl-isoxazol-5-yl)-methyl]-5-(trifluoromethyl)-1H-pyrrole-2-carboxylic acid amide] reads above 95%; that for `Cc1cc(Cn2c(C(=O)N(C)C(C)C)c(-c3ccc(Cl)cc3)c(C)c2C(F)(F)F)no1` [Example 068, 3-(4-Chlorophenyl)-N-isopropyl-N,4-dimethyl-1-[(5-methyl-isoxazol-3-yl)-methyl]-5-(trifluoromethyl)-1H-pyrrole-2-carboxylic acid amide], above 95%; that for `Cc1c(-c2ccc(Cl)cc2)c(C(=O)N(C)C(C)C)n(Cc2nncs2)c1C(F)(F)F` [Example 069, 3-(4-Chlorophenyl)-N-isopropyl-N,4-dimethyl-1-([1,3,4]thiadiazol-2-yl-methyl)-5-(trifluoromethyl)-1H-pyrrole-2-carboxylic acid amide], above 95%.

The values above are taken from patent publication US9802921B2, “Fluoromethyl-substituted pyrrole carboxamides iv” (Grünenthal GmbH, priority 2013, dated 2017).
